In one experiment the test system is SKOV3 tumor. The experiment can be described thus: SKOV3 ovarian tumor progression in nude mice. It is filed as in vivo. Particulars: Mean ± S.E. As for the experimental part: Human mAb LT3015 reduced ovarian tumor SKOV3 progression and circulating cytokines in biological fluids. Nude mice were engrafted with either 10 mg/kg LT3015, vehicle, or 2 mg/kg paclitaxel (Taxol). After 56 days, mice were sacrificed and the peritoneal cavities were analyzed for tumor burden and ascites fluid accumulation. Tumors were harvested and final tumor weights were determined along with ascites volumes. Data were analyzed by ANOVA and student's t-test analysis. […] Serum and ascites levels of IL-6, IL-8, GM-CSF and VEGF were measured using ELISA kits from R&D systems, Minneapolis Minn.

Experiment [1] concerns IL-8 release in SKOV3 cells. The experiment can be described thus: LPA-induced IL-8 release in SKOV3 cells. It is filed as cell-based, human. The conditions noted are these: 1 uM LPA alone. As for the experimental part:
(§1) Anti-LPA antibodies inhibit the LPA-dependant release of human CXCL8/IL-8 in conditioned media of SKOV3 ovarian cells. SKOV3 cells (Lot No 4255558, passage 14) were harvested with 2 ml of 1× Trypsin EDTA (Mediatech Inc, Cat. No 25-053-CV) and resuspended in 8 ml of complete medium (10% FBS, Mediatech Inc. Cat. no 35-011-CV). The cells were centrifuged for 5 min ([…]) and re-suspended in 5 ml of complete medium. Cells were counted in duplicate with 0.4% Trypan blue (10 ul cells plus 90 ul Trypan blue, Invitrogen, Cat. No 15250-061) using a hemocytometer. In a 96-well plate, 1×10^5 cells per well were seeded (final volume 100 ul/well). The cells were allowed to attach and form a confluent monolayer by incubating overnight at 37° C. On the following day, cells were gently washed two times with minimum media (1 mg/ml BSA in McCoy's medium with L-glutamine, Mediatech, Cat. No 10-050-CV). The media was adjusted to 1% penicillin/streptomycin (Mediatech, Cat. No 30-002 CI) and 2.2 g/L sodium-bicarbonate (Mediatech, Cat. No 25-035-CI). Next, the cells were serum-starved at 37° C. for exactly 24 h, followed by cytokine stimulation with 1 uM C18:1 LPA (Avanti, Cat. No 857130) dissolved in 1 mg/ml BSA/PBS (Calbiochem, Cat. No 126575) which was pre-incubated in presence or absence of humanized LPA antibody LT3015 (150, 300 or 600 ug/mL) for one hour. Treatments were then added to the cells. After 22 h of cytokine stimulation, the cells were centrifuged for 5 min (13,500 rpm) at 4° C. and the supernatants (cell-conditioned media) were collected. The CXCL8/IL-8 levels in each supernatant were measured using the Quantikine human CXCL8/IL-8 ELISA kit according to vendor instructions (R&D Systems, Minneapolis Minn., Cat. No D8000C). The IL-6 levels were measured by ELISA using the Quantikine human IL-6 immunoassay kit (R&D systems, Cat. No. D6050). Data were analyzed by one-way ANOVA followed by Bonferroni's post test and expressed as human IL-8 or human IL-6 fold increase.

The test system of experiment [2] is IL-6 release in SKOV3 cells. The experiment can be described thus: LPA-induced IL-6 release in SKOV3 cells. It is filed as cell-based, human. The conditions noted are these: 1 uM LPA alone. How it is done: as §1, with “The media was adjusted to 1% penicillin/streptomycin (Mediatech, Cat. No 30-002 CI) and 2.2 g/L sodium-bicarbonate (Mediatech, Cat. No 25-035-CI). Next, the cells were serum-starved at 37° C. for exactly 24 h, followed by cytokine stimulation with 1 uM C18:1 LPA (Avanti, Cat. No 857130) dissolved in 1 mg/ml BSA/PBS (Calbiochem, Cat. No 126575) which was pre-incubated in presence or absence of humanized LPA antibody LT3015 (150, 300 or 600 ug/mL) for one hour. Treatments were then added to the cells. After 22 h of cytokine stimulation, the cells were centrifuged for 5 min (13,500 rpm) at 4° C. and the supernatants (cell-conditioned media) were collected.” left out

In a further experiment the test system is SKOV3 cells. The experiment can be described thus: Scratch assay, SKOV3 tumor cell migration. Particulars: 17 hr. In kind it is cell-based, human. How it is done:
SKOV3 cells were plated at 15,000 cells per well in a 96-well plate. The following day the cells were serum starved in minimal media (McCoy's Media 5a, adjusted to contain L-Glutamine, 2.2 g/L Sodium Bicarbonate, 1% penicillin/streptomycin and 1 mg/ml BSA) for 24 hrs. At time 0 cells were scratched with a p200 pipet tip down the center of each well, washed with minimal media and pictures were taken prior to treatment. Cells were then treated with LPA (C18:1) at 0.2 uM, 1.0 uM and 10 uM concentrations which were pre-incubated at 37° C. with […] in the presence or absence of antibody at 150 ug/ml. Positive control (10% FBS treated cells) and antibody alone added to 1 uM LPA, were also tested. Cells were stimulated for 17 hrs at 37° C. in a 5% CO2 incubator. Pictures were taken again 17 hr post-treatment and % wound closure was measured by adjusting pictures to the same size and measuring the width of the scratch at time 0 and time 17 hr with a ruler. Data were analyzed by Student's t-test.

In the next experiment the test system is IL-8 in Caki-1 cells. The experiment can be described thus: LPA-induced IL-8 production in Caki-1 cells. It is filed as cell-based, human. The conditions noted are these: 18:1 LPA (0.2 mM), non-treated cells, average. As for the experimental part:
Three anti-LPA mAbs (B3, B7 and B58) were tested for their abilities to reduce in vitro IL-8 production compared to a non-specific antibody (NS). Caki-1 cells were seeded in 96 well plates and grown to confluency. After overnight serum starvation, cells were treated with 18:1 LPA (0.2 mM) with or without anti-LPA mAb B3, B7, B58 or NS (Non-Specific). After 24 h, cultured supernatants of renal cancer cells (Caki-1), treated with or without LPA and in presence of increasing concentrations of the anti-LPA mAbs B3, B7 and B58, were collected and analyzed for IL-8 levels using a commercially available ELISA kit (Human Quantikine Kit, R&D Systems, Minneapolis, Minn.). […] The inhibition of IL-8 release by the anti-LPA mAbs was also observed in other cancerous cell lines such as the pancreatic cell line Panc-1.

Marks after values point to notes of the source that are not given here.

Consider `CC(=O)O[C@H]1C(=O)[C@@]2(C)[C@H]([C@H](OC(=O)c3ccccc3)[C@]3(O)C[C@H](OC(=O)[C@H](O)[C@@H](NC(=O)c4ccccc4)c4ccccc4)C(C)=C1C3(C)C)[C@]1(OC(C)=O)CO[C@@H]1C[C@@H]2O` [Taxol, paclitaxel, reference compound], for which the “Ascites volume” value in the experiment on SKOV3 tumor worked out at 0.2 ± 0.0 mL.
With “Lysophosphatidic acid [LPA, reference compound]”, in experiment [1], the “Human IL-8 Fold Increase (approx).” value was ~7.1##. For the same molecule, in experiment [2], the “Human IL-6 Fold Increase (approx).” value is recorded as ~29##. The “Percent wound closure (approx.)” value in the experiment on SKOV3 cells (0.2 uM LPA) is listed as roughly 65%; in the experiment on SKOV3 cells (1.0 uM LPA), roughly 81%; in the experiment with SKOV3 cells (10 uM LPA), roughly 89%. In the experiment with IL-8 in Caki-1 cells, the “increase of IL-8 expression” value turned out to be 100%.

Values taken from patent US8604172B2, “Humanized antibody compositions and methods for binding lysophosphatidic acid” (Lpath, Inc., priority 2009, dated 2013).
